“Also recorded” adds a separate entry of the source.
What was measured:
AF6 domain 1 = target: T1, AF6 domain 1 (Homo sapiens, UniProt P55196); experiment: G assay PDZ-PL binding; conditions: peptide 10 uM, protein 5
T1 construct: made in house; host or cells: E. coli (DH5alpha or BL-21)

[1] = test system: c-JUN N-terminal kinase (JNK); experiment: Jun kinase assay in microinjected Xenopus oocytes; type: cell-based
Method: Experimental Design: This experiment was divided into two phases. In the first phase, an MBP-E6 fusion protein (HPV16; see example 4) was microinjected into Xenopus oocytes at different concetrations and then the oocytes were assayed for INK activity. In the second phase, peptides corresponding to the C-termini of non-oncogenic E6 protein (HPV11), HPV16 E6 (oncogenic) or Tax (shown to block oncogenic E6 binding to PDZ domains, FIG. 3) were co-injected with an activating amount of MBP-E6 fusion protein to assess ther abilities to block JNK activation.
Isolation and Microinjection of Oocytes—Xenopus ovarian tissue was surgically removed, and oocytes were defolliculated for 1-1.5 h at room temperature with 2 mg/ml collagenase and 0.5 mg/ml polyvinylpyrrolidone in Ca21-free modified Barth's solution (88 mM NaCl, 1 mM KCl, 0.82 mM MgSO4, 2.4 mM NaHCO3, 10 mM HEPES, pH 7.5). The oocytes were then washed four times with modified Barth's solution. Stage VI oocytes were sorted manually and incubated at 16° C. for at least 10 h in OR2 solution (82.5 mM NaCl, 2.5 mM KCl, 1 mM CaCl2, 1 mM Na2HPO4, 5 mM HEPES, pH 7.5) supplemented with 1 mg/ml bovine serum albumin and […] gentamicin. Immature oocytes were microinjected with purified MBP-E6 protein or E6 protein and peptide and transferred to fresh OR2 for the duration of the time course. Five oocytes were collected per time point, frozen on dry ice, and stored at −80° C.
Lysis of Oocytes, Eggs, and Embryos—Frozen oocytes, eggs, and embryos were thawed rapidly and lysed by pipetting up and down in 60 ml of ice-cold extraction buffer (EB) (0.25 M sucrose, 0.1 M NaCl, 2.5 mM MgCl2, 20 mM HEPES, pH 7.2) containing 10 mM EDTA, protease inhibitors (10 mg/ml leupeptin, 10 mg/ml pepstatin, 10 mg/ml aprotinin, 1 mM phenylmethylsulfonyl fluoride), and phosphatase inhibitors (50 mM 2-glycerophosphate, 1 mM sodium orthovanadate, 2 mM microcystin). Samples were clarified by centrifugation for 2.5 min in a Beckman E microcentrifuge with a right angle rotor. Crude cytoplasm was collected and processed for immunoblotting or kinase assays, as described below.
Jun Kinase Assay—Jun kinase assays were performed as described. Crude oocyte, egg, or embryo cytoplasm was diluted 1:1 in EB and pre-cleared with 20 ml of glutathione-Sepharose beads (Amersham Pharmacia Biotech) for 1 h at 4° C. with moderate shaking. Lysates were incubated with glutathione S-transferase GST-c-Jun-(1-79) fusion protein (hereafter denoted GST-Jun) immobilized on glutathione- Sepharose beads. After 3 h at 4° C., the beads were washed three times with 50 mM HEPES, pH 7.5, 150 mM NaCl, 1% Triton X-100, 1 mM EDTA, 10% glycerol, 10 mM sodium pyrophosphate, 2 mM sodium orthovanadate, 10 mM sodium fluoride, 1 mM phenylmethylsulfonyl fluoride, and 10 mg/ml aprotinin (24) and once with 0.4 ml of kinase buffer (20 mM HEPES, pH 7.5, 10 mM MgCl2, 1 mM dithiothreitol, 200 mM sodium orthovanadate). The bound JNK activity was detected by the addition of 1 mCi of [g-32]JATP. The reaction was terminated after 20 min at 30° C., and the products were resolved by SDS-PAGE. The gels were transferred to PVDF membranes (Hybond; Amersham Pharmacia Biotech) and the incorporation of [32P]phosphate into GST-Jun was visualized by autoradiography. […]

T1 sequence (P55196 1001-1093): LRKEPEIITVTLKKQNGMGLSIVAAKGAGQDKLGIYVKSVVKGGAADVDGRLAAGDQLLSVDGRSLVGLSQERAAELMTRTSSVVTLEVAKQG

Substance: 20 mer peptide corresponding to the C-terminus of HPV16 E6 (PDZ ligand), biotinylated in binding assays; ends SSRTRRETQL (SEQ ID NO: 13) [HPV E6 #16]
- Ave OD (AF6 domain 1; A450 nm): 0.444
- OD S/N (AF6 domain 1; vs GST only well): 1.80
- inhibition of HPV16 E6-dependent JNK activation by co-injected peptide [1]: can be inhibited by peptide representing HPV E6 16 oncoprotein; also recorded: can be inhibited by peptide representing the c-terminus of the HPV16 E6 oncoprotein; also recorded: blocked E6-dependent INK activation

— US20100120700A1, “METHODS AND COMPOSITIONS FOR TREATING CERVICAL CANCER” (priority 2000, published 2010)
